Laboratory results as given in ChEMBL document CHEMBL4665856, “Design and synthesis of new disubstituted benzoxazolone derivatives that act as iNOS inhibitors with potent anti-inflammatory activity against LPS-induced acute lung injury (ALI)” (Bioorg Med Chem, 2020).
Calls of active or inactive are those of the source. The rule behind the calls is not given here.

Tests used:
RAW264.7 [1] = experiment: Antiinflammatory activity in mouse RAW264.7 cells assessed as reduction in LPS-induced IL-1 beta production at 12.5 uM measured after 24 hrs by ELISA; assay type: functional, cell-based
RAW264.7 [2] = experiment: Antiinflammatory activity in mouse RAW264.7 cells assessed as reduction in LPS-induced TNF-alpha production at 12.5 uM measured after 24 hrs by ELISA; assay type: functional, cell-based
Mus musculus [3] = experiment: Anti-inflammatory activity in Kunming mouse assessed as inhibition of xylene-induced ear edema at 12.5 mg/kg, po dosed 1 hr prior to xylene challenge and measured at 30 mins post xylene injection relative to control; assay type: functional; details: 1.5 h, time 90 min
RAW264.7 [4] = experiment: Cytotoxicity against mouse RAW 264.7 cells assessed as reduction in cell proliferation at 25 uM by MTT assay; assay type: cell-based; details: raw264.7, 25 µM
RAW264.7 [5] = experiment: Antiinflammatory activity in mouse RAW264.7 cells assessed as reduction in LPS-induced IL-6 production at 12.5 uM measured after 24 hrs by ELISA; assay type: functional, cell-based
[6] = target: T1, Nitric oxide synthase, inducible (Mus musculus, UniProt P29477); experiment: Inhibition of iNOS in mouse RAW264.7 cells assessed as inhibition of LPS-induced nitric oxide overproduction incubated for 24 hrs by Griess assay; assay type: cell-based
T1 sequence (P29477 whole entry): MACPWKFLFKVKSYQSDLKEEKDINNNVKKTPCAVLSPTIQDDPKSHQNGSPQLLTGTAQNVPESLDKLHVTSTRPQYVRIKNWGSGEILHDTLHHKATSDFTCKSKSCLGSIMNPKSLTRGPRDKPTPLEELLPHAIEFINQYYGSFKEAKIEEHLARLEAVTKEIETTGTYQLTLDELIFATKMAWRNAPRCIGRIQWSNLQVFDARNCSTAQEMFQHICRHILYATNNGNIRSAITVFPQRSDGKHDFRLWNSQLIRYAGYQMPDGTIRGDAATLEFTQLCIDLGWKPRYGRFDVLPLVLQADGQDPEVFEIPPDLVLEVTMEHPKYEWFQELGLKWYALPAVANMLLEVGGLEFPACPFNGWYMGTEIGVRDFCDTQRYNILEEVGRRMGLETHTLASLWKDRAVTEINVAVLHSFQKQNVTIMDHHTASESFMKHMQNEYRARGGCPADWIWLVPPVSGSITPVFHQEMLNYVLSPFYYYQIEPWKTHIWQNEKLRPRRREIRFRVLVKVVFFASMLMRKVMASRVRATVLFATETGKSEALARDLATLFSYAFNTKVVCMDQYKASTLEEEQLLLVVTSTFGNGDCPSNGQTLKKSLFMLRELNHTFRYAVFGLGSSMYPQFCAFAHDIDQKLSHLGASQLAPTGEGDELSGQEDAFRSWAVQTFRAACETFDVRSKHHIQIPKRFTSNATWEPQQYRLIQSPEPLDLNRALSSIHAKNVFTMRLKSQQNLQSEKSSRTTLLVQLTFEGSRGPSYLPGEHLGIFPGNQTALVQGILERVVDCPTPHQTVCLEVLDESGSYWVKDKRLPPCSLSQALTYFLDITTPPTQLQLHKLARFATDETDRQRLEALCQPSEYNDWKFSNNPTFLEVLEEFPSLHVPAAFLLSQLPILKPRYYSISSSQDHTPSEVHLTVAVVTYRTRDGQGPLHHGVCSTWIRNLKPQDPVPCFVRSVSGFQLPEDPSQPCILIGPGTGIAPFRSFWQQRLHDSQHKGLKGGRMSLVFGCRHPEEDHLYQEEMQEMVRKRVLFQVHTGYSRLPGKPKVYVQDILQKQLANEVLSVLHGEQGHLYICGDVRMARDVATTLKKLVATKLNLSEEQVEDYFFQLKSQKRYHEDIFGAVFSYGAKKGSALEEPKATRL

RAW264.7 [7] = experiment: Anti-inflammatory activity in mouse RAW264.7 cells assessed as inhibition of LPS-induced nitric oxide synthase production measured after 24 hrs by ELISA; assay type: functional, cell-based; details: RAW264.7, 24 h
Mus musculus [8] = experiment: Anti-inflammatory activity against LPS-induced ALI Kunming mouse model assessed as reduction in IL-1 beta level in serum at 3.125 to 12.5 mg/kg, po administered 4 hrs prior to LPS instillation and measured at 12 hrs post-LPS instillation by ELISA; assay type: functional, organism-based; details: dose mg/kg 3.125-12.5, time 16.0 hrs
Mus musculus [9] = experiment: (§1) Anti-inflammatory activity against LPS-induced ALI Kunming mouse model assessed as reduction in IL-6 level in serum at 3.125 to 12.5 mg/kg, po administered 4 hrs prior to LPS instillation and measured at 12 hrs post-LPS instillation by ELISA; assay type: functional, organism-based; details: dose mg/kg 3.125-12.5, time 16.0 hrs
Mus musculus [10] = experiment: as §1, with “inflammatory infiltration” for “IL-6 level”, “lungs and pulmonary congestion” for “serum”, “hematoxylin-eosin staining based analysis” for “ELISA”; assay type: functional, organism-based; details: dose mg/kg 3.125-12.5, time 16.0 hrs
Mus musculus [11] = experiment: Anti-inflammatory activity against LPS-induced ALI Kunming mouse model assessed as reduction in lung edema by measuring reduction in lung wet-to-dry ratio at 3.125 to 12.5 mg/kg, po administered 4 hrs prior to LPS instillation and measured at 12 hrs post-LPS instillation; assay type: functional, organism-based; details: dose mg/kg 3.125-12.5, time 16.0 hrs
RAW264.7 [12] = experiment: Anti-inflammatory activity in mouse RAW264.7 cells assessed as reduction in LPS-induced iNOS mRNA expression at 12.5 uM by RT-PCR analysis; assay type: functional, cell-based
Mus musculus [13] = experiment: Anti-inflammatory activity against LPS-induced ALI Kunming mouse model assessed as reduction in iNOS expression in lung at 3.125 to 12.5 mg/kg, po administered 4 hrs prior to LPS instillation and measured at 12 hrs post-LPS instillation by immunohistochemistry; assay type: functional, organism-based; details: dose mg/kg 3.125-12.5, time 16.0 hrs
Mus musculus [14] = experiment: Anti-inflammatory activity against LPS-induced ALI Kunming mouse model assessed as reduction in TNF-alpha level in serum at 3.125 to 12.5 mg/kg, po administered 4 hrs prior to LPS instillation and measured at 12 hrs post-LPS instillation by ELISA; assay type: functional, organism-based; details: dose mg/kg 3.125-12.5, time 16.0 hrs
Mus musculus [15] = experiment: Anti-inflammatory activity against LPS-induced ALI Kunming mouse model assessed as reduction in neutrophil infiltration in lungs by measuring decrease in MPO activity at 3.125 to 12.5 mg/kg, po administered 4 hrs prior to LPS instillation and measured at 12 hrs post-LPS instillation; assay type: functional, organism-based; details: dose mg/kg 3.125-12.5, time 16.0 hrs
Mus musculus [16] = experiment: Anti-inflammatory activity against LPS-induced ALI Kunming mouse model assessed as reduction in iNOS level in serum at 3.125 to 12.5 mg/kg, po administered 4 hrs prior to LPS instillation and measured at 12 hrs post-LPS instillation by ELISA; assay type: functional, organism-based; details: dose mg/kg 3.125-12.5, time 16.0 hrs
Mus musculus [17] = species: Mus musculus; details: Kunming, dose 12.5 mg/kg, time 90.0 min

SMILES | Activity (RAW264.7 [1]) | Activity (RAW264.7 [2]) | inhibition in vivo at 12.5 mg/kg (Mus musculus [3]) | Activity (RAW264.7 [4]) | Activity (RAW264.7 [5]) | IC50 [6] | IC50 (RAW264.7 [7]) | also measured
Cn1cnc(S(=O)(=O)Oc2cccc3oc(=O)n(Cc4ccccc4)c23)c1 | Active | Active | > 50% | Non-Toxic | Active |  |  | 
Cn1cnc(S(=O)(=O)Oc2cccc3oc(=O)n(Cc4ccc([N+](=O)[O-])cc4)c23)c1 |  |  |  | Non-Toxic |  |  |  | 
CN(C)c1cccc2c(S(=O)(=O)Oc3cccc4oc(=O)n(Cc5ccccc5)c34)cccc12 | Active | Active | > 50% | Non-Toxic | Active | 16.4 µM | 4.61 µM | 
Cc1ccc(Cn2c(=O)oc3cccc(OS(=O)(=O)c4cn(C)cn4)c32)cc1 |  |  |  | Non-Toxic |  |  |  | 
Cc1ccccc1S(=O)(=O)Oc1cccc2oc(=O)n(CCc3ccccc3)c12 |  |  |  | Non-Toxic |  |  |  | 
CN(C)c1cccc2c(S(=O)(=O)Oc3cccc4oc(=O)n(CCc5ccccc5)c34)cccc12 | Active | Active | > 50% | Non-Toxic | Active | 14.7 µM | 3.34 µM | Activity (Mus musculus [8]): Dose-dependent effect; Activity (Mus musculus [9]): Dose-dependent effect; Activity (Mus musculus [10]): Dose-dependent effect; Activity (Mus musculus [11]): Dose-dependent effect; Activity (RAW264.7 [12]): Active; Activity (Mus musculus [13]): Dose-dependent effect; Activity (Mus musculus [14]): Dose-dependent effect; Activity (Mus musculus [15]): Dose-dependent effect; Activity (Mus musculus [16]): Dose-dependent effect
Cn1cnc(S(=O)(=O)Oc2cccc3oc(=O)n(CCc4ccccc4)c23)c1 | Active | Active | > 50% | Non-Toxic | Active | 13.4 µM | 9.73 µM | 
N=C(NCCC[C@H](N)C(=O)O)N[N+](=O)[O-] [NITROARGININE] |  |  |  |  |  | 27.6 µM | 2.92 µM | inhibition (Mus musculus [17]): Active
